# Reference: patent publication US8835429B2, “Pyrimidine compounds, their use as mTOR kinase and Pl3 kinase inhibitors, and their syntheses” (Wyeth LLC, priority 2009, dated 2014)
# Read-outs that look alike come from different tables or passages of the source.
# Columns and labels:
# PI3K-alpha = PI3K-alpha (Homo sapiens, UniProt P42336); assay: PI3K-alpha fluorescence polarization assay; assay type: biochemical; conditions: 20 μM PIP2, 25 μM ATP; read-out: PI3Kα IC50
# Procedure: The reaction buffer was 20 mM HEPES, pH 7.5, 2 mM MgCl2, 0.05% CHAPS; and 0.01% βME (added fresh). The stop/detection buffer was 100 mM HEPES, pH 7.5, 4 mM EDTA, 0.05% CHAPS; ATP 20 mM in water; PIP2 (diC8, Echelon, Salt Lake City Utah cat #P-4508) 1 mM in water (MW=856.5). The GST-GRP was 1.75 mg/mL or 1.4 mg/mL in 10% glycerol. The red detector (TAMRA) was 2.5 μM. Nunc 384-well black polypropylene fluorescent plates were used for PI3K assays.
# The assay is run by placing 5 μL of diluted enzyme per well, then 5 μL of diluted compound (or 9.5 μL enzyme then 0.5 μL compound in DMSO) is added and mixed. Then, 10 μL substrate is added to start the reaction. The samples are incubated 30-60 minutes, then the reaction is stopped by adding 20 μL stop/detector mix. PI3K is diluted with reaction buffer (e.g., 5 μL or 7.5 μL PI3K into 620 μL reaction buffer), and 5 μL of diluted enzyme is used per well. A 5 μL portion of reaction buffer or of drug diluted in buffer (e.g., 4 μL/100 so final DMSO is 1% in reaction) is added to each. Pipetting up and down mixes the samples. Alternatively, the enzyme can be diluted to 1215 μL. In this case 9.8 μL is added per well and 0.2 μL compound is added in DMSO.
# To prepare 1 mL of substrate solution, 955 μL reaction buffer, 40 μL PIP2, and 2.5 μL ATP are mixed. 10 μL of substrate is added to each well to start the reaction. […] The stop/detector mix is prepared by mixing 4 μL red detector and 1.6 μL or 2.0 μL GST-GRP with 1 mL stop buffer, which results in 10 nM probe and 70 nM GST-GRP. 20 μL of the stop/detector mix is added to each well to stop the reaction. The plates are read after 30-90 minutes keeping the red probe solutions dark. For the zero time point, stop/detector mix is added to the enzyme just before adding substrate. For an extra control, stop/detector mix is added to buffer (no enzyme) and substrate or to just buffer (no substrate). […] The recommended reaction has 0.06 μL per 20 μL (0.015 μg/20 μL) or 0.01125 μg/15 μL or 0.75 μg/mL.
# Plates are read on machines with filters for TAMRA. The units are mP with no enzyme controls reading app 190-220 mP units. Fully active enzyme reduces fluorescence polarization down to 70-100 mP after 30 minutes. An active compound raises the mP values halfway to control or to 120-150 mP units.
# LNCap = assay: In vitro cell growth assay (MTS), LNCap; assay type: cell-based; conditions: human prostate line, three days after drug treatment
# Procedure: (§1) The cell lines used were human prostate lines LNCap and PC3MM2, human breast lines MDA468 and MCF7, human renal line HTB44 (A498), human colon line HCT116, and human ovarian line OVCAR3. Cells were plated in 96-well culture plates. One day following plating, the inhibitors were added to cells. Three days after drug treatment, viable cell densities were determined by metabolic conversion (by viable cells) of the dye MTS, a well-established cell proliferation assay. The assays were performed using an assay kit purchased from Promega Corp. (Madison, Wis.) following the protocol supplied with the kit. The MTS assay results were read in a 96-well plate reader by measuring absorbance at 490 nm. The effect of each treatment was calculated as percent of control growth relative to the vehicle-treated cells grown in the same culture plate.
# MDA468 = assay: In vitro cell growth assay (MTS), MDA468; assay type: cell-based; conditions: human breast line MDA468, three days after drug treatment, read-out: MDA IC50
# Procedure: as §1
# mTOR = mTOR (Homo sapiens, UniProt P42345); assay: mTOR enzyme assay (DELFIA, purified FLAG-TOR, His6-S6K substrate); assay type: biochemical; set-up: FLAG; conditions: 100 μM ATP, 2 hours
# Chain of mTOR (P42345 1360-2549 limits assumed): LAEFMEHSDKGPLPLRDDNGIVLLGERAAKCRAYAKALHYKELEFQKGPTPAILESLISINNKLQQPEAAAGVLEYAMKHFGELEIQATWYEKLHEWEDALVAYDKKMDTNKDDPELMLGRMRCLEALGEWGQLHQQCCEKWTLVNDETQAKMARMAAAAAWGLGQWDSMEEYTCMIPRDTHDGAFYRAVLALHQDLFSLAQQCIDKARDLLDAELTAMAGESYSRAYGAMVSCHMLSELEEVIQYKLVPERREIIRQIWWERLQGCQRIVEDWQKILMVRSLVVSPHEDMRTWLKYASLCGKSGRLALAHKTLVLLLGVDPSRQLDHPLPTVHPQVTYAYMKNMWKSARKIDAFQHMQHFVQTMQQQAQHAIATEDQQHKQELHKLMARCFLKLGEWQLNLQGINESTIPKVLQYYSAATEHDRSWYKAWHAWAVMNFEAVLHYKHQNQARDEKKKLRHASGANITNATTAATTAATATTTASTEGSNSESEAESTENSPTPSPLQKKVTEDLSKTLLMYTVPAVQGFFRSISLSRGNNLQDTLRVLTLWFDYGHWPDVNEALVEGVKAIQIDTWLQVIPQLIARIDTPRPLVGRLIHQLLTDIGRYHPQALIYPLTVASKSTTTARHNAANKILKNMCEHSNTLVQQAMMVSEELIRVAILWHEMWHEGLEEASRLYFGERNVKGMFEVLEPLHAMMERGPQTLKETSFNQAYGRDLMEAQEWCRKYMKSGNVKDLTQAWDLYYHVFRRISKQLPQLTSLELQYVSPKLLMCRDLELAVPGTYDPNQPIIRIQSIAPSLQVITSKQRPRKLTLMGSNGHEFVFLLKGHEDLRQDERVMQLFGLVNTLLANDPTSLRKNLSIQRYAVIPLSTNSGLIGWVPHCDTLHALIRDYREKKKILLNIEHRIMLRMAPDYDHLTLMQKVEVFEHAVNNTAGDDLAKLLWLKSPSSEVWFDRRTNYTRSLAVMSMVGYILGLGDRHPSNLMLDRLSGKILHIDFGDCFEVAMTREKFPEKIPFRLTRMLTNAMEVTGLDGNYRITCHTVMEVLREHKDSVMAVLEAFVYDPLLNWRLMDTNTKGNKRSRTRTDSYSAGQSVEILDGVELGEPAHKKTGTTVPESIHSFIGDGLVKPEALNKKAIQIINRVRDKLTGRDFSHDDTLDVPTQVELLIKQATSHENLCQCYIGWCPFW
# Chain of PI3K-alpha (P42336 whole entry, species assumed): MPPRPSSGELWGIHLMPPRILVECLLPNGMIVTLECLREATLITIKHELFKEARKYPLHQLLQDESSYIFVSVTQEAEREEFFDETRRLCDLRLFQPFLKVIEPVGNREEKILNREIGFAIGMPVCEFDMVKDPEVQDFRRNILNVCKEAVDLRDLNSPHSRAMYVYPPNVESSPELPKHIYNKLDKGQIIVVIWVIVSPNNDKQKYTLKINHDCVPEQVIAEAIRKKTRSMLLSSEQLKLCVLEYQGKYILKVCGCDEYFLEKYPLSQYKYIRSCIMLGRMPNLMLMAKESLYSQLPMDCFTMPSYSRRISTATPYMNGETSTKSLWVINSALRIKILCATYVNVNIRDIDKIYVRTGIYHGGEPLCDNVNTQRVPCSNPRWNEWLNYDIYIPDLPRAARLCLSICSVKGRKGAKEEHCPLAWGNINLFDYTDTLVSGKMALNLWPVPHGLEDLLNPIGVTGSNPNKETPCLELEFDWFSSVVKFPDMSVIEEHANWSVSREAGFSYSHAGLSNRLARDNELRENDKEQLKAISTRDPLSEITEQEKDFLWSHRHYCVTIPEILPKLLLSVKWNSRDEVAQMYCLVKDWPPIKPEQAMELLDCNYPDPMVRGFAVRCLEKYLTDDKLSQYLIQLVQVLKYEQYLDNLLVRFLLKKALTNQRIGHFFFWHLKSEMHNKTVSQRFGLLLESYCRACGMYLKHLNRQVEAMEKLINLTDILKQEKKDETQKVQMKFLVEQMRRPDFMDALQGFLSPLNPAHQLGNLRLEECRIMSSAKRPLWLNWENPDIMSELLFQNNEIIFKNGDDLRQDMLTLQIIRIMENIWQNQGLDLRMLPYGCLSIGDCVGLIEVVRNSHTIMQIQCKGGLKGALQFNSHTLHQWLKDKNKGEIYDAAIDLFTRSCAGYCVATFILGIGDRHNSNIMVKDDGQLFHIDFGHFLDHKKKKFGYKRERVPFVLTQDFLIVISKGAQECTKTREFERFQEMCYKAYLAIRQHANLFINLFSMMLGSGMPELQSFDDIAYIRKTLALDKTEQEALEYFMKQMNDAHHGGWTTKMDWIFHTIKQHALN
# Chain of PI3K-alpha (P27986 whole entry partner, species assumed): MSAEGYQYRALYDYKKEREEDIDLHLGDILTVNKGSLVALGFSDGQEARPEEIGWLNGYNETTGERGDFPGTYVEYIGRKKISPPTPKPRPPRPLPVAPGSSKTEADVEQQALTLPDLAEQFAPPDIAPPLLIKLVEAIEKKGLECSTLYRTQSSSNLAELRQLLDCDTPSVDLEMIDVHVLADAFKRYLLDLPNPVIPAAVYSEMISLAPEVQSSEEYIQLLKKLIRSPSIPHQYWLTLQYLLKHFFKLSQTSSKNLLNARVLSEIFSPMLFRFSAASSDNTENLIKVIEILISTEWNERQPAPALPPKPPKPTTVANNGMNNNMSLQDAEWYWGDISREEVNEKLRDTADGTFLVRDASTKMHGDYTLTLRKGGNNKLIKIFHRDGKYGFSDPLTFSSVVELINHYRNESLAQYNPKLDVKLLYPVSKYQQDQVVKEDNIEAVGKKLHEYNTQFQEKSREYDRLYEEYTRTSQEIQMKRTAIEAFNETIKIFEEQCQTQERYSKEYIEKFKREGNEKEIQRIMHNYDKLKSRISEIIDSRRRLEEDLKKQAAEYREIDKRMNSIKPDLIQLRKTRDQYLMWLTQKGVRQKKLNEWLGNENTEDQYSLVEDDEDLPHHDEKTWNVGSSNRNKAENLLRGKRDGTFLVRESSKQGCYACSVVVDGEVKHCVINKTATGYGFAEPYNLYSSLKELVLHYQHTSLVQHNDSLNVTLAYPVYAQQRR
SMILES,IC50 (PI3K-alpha),"IC50 (LNCap; LNCaP, 72 h)",IC50 (MDA468; 72 h),IC50 (mTOR),IC50 (LNCap),IC50 (MDA468)
CC(C)Oc1cc(N2CC3CCC(C2)O3)nc(-c2ccc(NC(=O)Nc3ccncc3)cc2)n1 [1-{4-[4-(1-methylethoxy)-6-(8-oxa-3-azabicyclo[3.2.1]oct-3-yl)pyrimidin-2-yl]phenyl}-3-pyridin-4-ylurea],264 nM,23 nM,180 nM,1.35 nM,–,–
O=C(Nc1ccncc1)Nc1ccc(-c2nc(N3CC4CCC(C3)O4)cc(C(F)(F)F)n2)cc1 [1-{4-[4-(8-oxa-3-azabicyclo[3.2.1]oct-3-yl)-6-(trifluoromethyl)pyrimidin-2-yl]phenyl}-3-pyridin-4-ylurea],280 nM,50 nM,250 nM,2.45 nM,–,–
O=C(Nc1ccncc1)Nc1ccc(-c2nc(-c3ccccc3)cc(N3CC4CCC(C3)O4)n2)cc1 [1-{4-[4-(8-oxa-3-azabicyclo[3.2.1]oct-3-yl)-6-phenylpyrimidin-2-yl]phenyl}-3-pyridin-4-ylurea],229 nM,290 nM,390 nM,5.6 nM,–,–
O=C(Nc1ccncc1)Nc1ccc(-c2nccc(N3CC4CCC(C3)O4)n2)cc1 [1-{4-[4-(8-oxa-3-azabicyclo[3.2.1]oct-3-yl)pyrimidin-2-yl]phenyl}-3-pyridin-4-ylurea],224 nM,180 nM,650 nM,14.5 nM,–,–
CC(C)Nc1cc(N2C3CCC2COC3)nc(-c2ccc(NC(=O)Nc3ccc(N4CCN(C)CC4)cc3)cc2)n1 [1-{4-[4-(isopropylamino)-6-(3-oxa-8-azabicyclo[3.2.1]oct-8-yl)pyrimidin-2-yl]phenyl}-3-[4-(4-methylpiperazin-1-yl)phenyl]urea],2000 nM,19 nM,34 nM,2.7 nM,–,–
CC(C)Nc1cc(N2C3CCC2COC3)nc(-c2ccc(NC(=O)Nc3ccc(N4CCN(C)CC4)nc3)cc2)n1 [1-{4-[4-(isopropylamino)-6-(3-oxa-8-azabicyclo[3.2.1]oct-8-yl)pyrimidin-2-yl]phenyl}-3-[6-(4-methylpiperazin-1-yl)pyridin-3-yl]urea],3870 nM,90 nM,100 nM,4.2 nM,–,–
CC(C)Nc1cc(N2C3CCC2COC3)nc(-c2ccc(NC(=O)Nc3ccncc3)cc2)n1 [1-{4-[4-(isopropylamino)-6-(3-oxa-8-azabicyclo[3.2.1]oct-8-yl)pyrimidin-2-yl]phenyl}-3-pyridin-4-ylurea],2500 nM,13 nM,29 nM,1.4 nM,–,–
CC(C)Nc1cc(N2C3CCC2COC3)nc(-c2ccc(NC(=O)Nc3ccc(CN4CCN(C)CC4)cc3)cc2)n1 [1-{4-[4-(isopropylamino)-6-(3-oxa-8-azabicyclo[3.2.1]oct-8-yl)pyrimidin-2-yl]phenyl}-3-{4-[(4-methylpiperazin-1-yl)methyl]phenyl}urea],3410 nM,70 nM,110 nM,3.2 nM,–,–
CN1CCN(Cc2ccc(NC(=O)Nc3ccc(-c4nc(CS(C)(=O)=O)cc(N5CC6CCC(C5)O6)n4)cc3)cc2)CC1 [1-{4-[(4-methylpiperazin-1-yl)methyl]phenyl}-3-(4-{4-[(methylsulfonyl)methyl]-6-(8-oxa-3-azabicyclo[3.2.1]oct-3-yl)pyrimidin-2-yl}phenyl)urea],520 nM,80 nM,140 nM,4.05 nM,–,–
CNCc1ccc(NC(=O)Nc2ccc(-c3nc(CS(C)(=O)=O)cc(N4CC5CCC(C4)O5)n3)cc2)cc1 [1-{4-[(methylamino)methyl]phenyl}-3-(4-{4-[(methylsulfonyl)methyl]-6-(8-oxa-3-azabicyclo[3.2.1]oct-3-yl)pyrimidin-2-yl}phenyl)urea],63.5 nM,1100 nM,1560 nM,4.15 nM,–,–
O=C(Nc1ccc(-c2nc(N3CC4CCC(C3)O4)cc(C(F)(F)F)n2)cc1)OCCO [2-hydroxyethyl {4-[4-(8-oxa-3-azabicyclo[3.2.1]oct-3-yl)-6-(trifluoromethyl)pyrimidin-2-yl]phenyl}carbamate],5160 nM,950 nM,4000 nM,15.5 nM,–,–
O=C(Nc1ccc(-c2nc(-c3ccccc3)cc(N3CC4CCC(C3)O4)n2)cc1)OCCO [2-hydroxyethyl {4-[4-(8-oxa-3-azabicyclo[3.2.1]oct-3-yl)-6-phenylpyrimidin-2-yl]phenyl}carbamate],452 nM,600 nM,5500 nM,21.5 nM,–,–
O=C(Nc1ccc(-c2nccc(N3CC4CCC(C3)O4)n2)cc1)OCCO [2-hydroxyethyl {4-[4-(8-oxa-3-azabicyclo[3.2.1]oct-3-yl)pyrimidin-2-yl]phenyl}carbamate],5070 nM,4000 nM,24000 nM,165 nM,–,–
"NC(=O)c1ccc(NC(=O)Nc2ccc(-c3cc(N4CC5CCC(C4)O5)nc(-c4ccc(NC(=O)Nc5ccc(C(N)=O)cc5)cc4)n3)cc2)cc1 [4,4′-{[6-(8-oxa-3-azabicyclo[3.2.1]oct-3-yl)pyrimidine-2,4-diyl]bis(4,1-phenylenecarbamoylimino)}dibenzamide]",44.5 nM,–,–,0.58 nM,41 nM,45 nM
Nc1ccc(-c2nccc(N3CC4CCC(C3)O4)n2)cc1 [4-[4-(8-oxa-3-azabicyclo[3.2.1]oct-3-yl)pyrimidin-2-yl]aniline],6850 nM,41000 nM,≥ 60000 nM,4000 nM,–,–
"O=C(Nc1ccc(-c2cc(N3CC4CCC(C3)O4)nc(-c3ccc(NC(=O)Nc4cccnc4)cc3)n2)cc1)Nc1cccnc1 [N,N″-{[6-(8-oxa-3-azabicyclo[3.2.1]oct-3-yl)pyrimidine-2,4-diyl]di-4,1-phenylene}bis(3-pyridin-3-ylurea)]",101 nM,180 nM,380 nM,2.8 nM,–,–
"O=C(Nc1ccncc1)Nc1ccc(-c2cc(N3CC4CCC(C3)O4)nc(-c3ccc(NC(=O)Nc4ccncc4)cc3)n2)cc1 [N,N″-{[6-(8-oxa-3-azabicyclo[3.2.1]oct-3-yl)pyrimidine-2,4-diyl]di-4,1-phenylene}bis(3-pyridin-4-ylurea)]",69.5 nM,220 nM,780 nM,3.2 nM,–,–
"CC(C)Nc1nc(-c2ccc(NC(=O)Nc3cccnc3)cc2)nc(N2CC3CCC(C2)O3)c1NC(=O)CCN(C)C [N~3~,N~3~-dimethyl-N-(4-[(1-methylethyl)amino]-6-(8-oxa-3-azabicyclo[3.2.1]oct-3-yl)-2-{4-[(pyridin-3-ylcarbamoyl)amino]phenyl}pyrimidin-5-yl)-beta-alaninamide]",5980 nM,30000 nM,≥ 60000 nM,13500 nM,–,–
"O=C(Nc1ccc(-c2cc(N3CC4CCC(C3)O4)nc(-c3ccc(NC(=O)NC4CC4)cc3)n2)cc1)NC1CC1 [N′,N′″-{[6-(8-oxa-3-azabicyclo[3.2.1]oct-3-yl)pyrimidine-2,4-diyl]di-4,1-phenylene}bis(1-cyclopropylurea)]",2920 nM,310 nM,1500 nM,4 nM,–,–
"CCNC(=O)Nc1ccc(-c2cc(N3CC4CCC(C3)O4)nc(-c3ccc(NC(=O)NCC)cc3)n2)cc1 [N′,N′″-{[6-(8-oxa-3-azabicyclo[3.2.1]oct-3-yl)pyrimidine-2,4-diyl]di-4,1-phenylene}bis(1-ethylurea)]",1660 nM,310 nM,790 nM,1.85 nM,–,–
